Values quoted from earlier work, collected in patent publication US20250186477A1, “COMPOSITIONS COMPRISING FLUDARABINE PHOSPHATE AND METHODS OF MAKING AND USING SAME TO TREAT CANCER” (Areva Pharmaceuticals Limited, priority 2023, published 2025).

Conditions: refractory chronic lymphocytic leukemia patients receiving 22-40 mg/m^2 or 15-25 mg/m^2 fludarabine daily

For Nc1nc(F)nc2c1ncn2[C@@H]1O[C@H](CO)[C@@H](O)[C@@H]1O [fludarabine, (2R,3S,4S,5R)-2-(6-amino-2-fluoropurin-9-yl)-5-(hydroxymethyl)oxolane-3,4-diol], the pneumonia is given as “high rates of pneumonia”.
